Source: paper PMC4230943, “Mimicking Hypoxia to Treat Anemia: HIF-Stabilizer BAY 85-3934 (Molidustat) Stimulates Erythropoietin Production without Hypertensive Effects” (PLoS ONE, 2014)

Legend:
male Wistar rats [1] = assay: Time-course of kidney mRNA expression (EPO, HIF target genes) and plasma EPO after a single dose; assay type: in vivo, rat
Description: (§1) Male Wistar rats (240–340 g in body weight) were housed with five animals per cage for at least 1 week before experimentation. Blood samples from rats were collected under anesthesia (2% isoflurane in air) by puncturing the retro-orbital vein plexus with a glass capillary. In a repeat-dose, 26-day experiment, animals were administered vehicle or BAY 85-3934 at doses of 0.5 mg/kg, 1.25 mg/kg, 2.5 mg/kg, and 5 mg/kg. PCV was determined at baseline and at weekly intervals after centrifugation in a hematocrit capillary tube (Brand) for 10 min at full speed in a Haemofuge centrifuge (Heraeus). The number of reticulocytes in 5 µl blood was counted after staining with thiazol orange (Becton Dickinson) according to the manufacturer’s instructions by FACS analysis on a BD FACSCalibur system (Becton Dickinson). The efficacy of BAY 85-3934 (2.5 mg/kg, once-daily, oral) was also compared with that of rhEPO (25 IU/kg, 50 IU/kg, and 100 IU/kg, twice-weekly, s.c. injection). The time-course of induction of EPO mRNA expression and plasma EPO was determined at baseline and 0.5 h, 1 h, 2 h, 4 h, 6 h, and 8 h after oral administration of a single dose of BAY 85-3934 (5 mg/kg).
(§2) EPO was measured in plasma samples taken from rodents using a commercial ELISA kit (R&D Systems), according to the manufacturer’s instructions. Relative plasma EPO levels were given in picograms per milliliter. In cynomolgus monkeys, EPO was measured using a combination anti-human EPO ELISAs (R&D Systems and Roche Diagnostics), with human EPO as a standard. Values were given as units per liter. For determination of plasma prorenin from rats, a commercial ELISA (Oxford Biomedical Research) was used according to the manufacturer’s instructions. Hemoglobin in rodent blood samples was determined on a Cell-Dyn 3700 apparatus (Abbott Diagnostics). BAY 85-3934 plasma concentrations were determined after protein precipitation with acetonitrile/ammonium acetate using an internal standard, followed by separation using HPLC/mass spectrometry.
(§3) Total RNA was extracted from shock-frozen cell or tissue samples using the TRIzol method. Integrity of obtained RNA was checked on a Bioanalyzer (Agilent Technologies). For reverse transcription, 1 µg of total RNA was digested with RNase-free DNase I (Gibco) for 15 min at room temperature, and then reverse-transcribed using Promiscript (Promega GmbH) in a total reaction volume of 40 µl according to the standard protocol of the supplier. After inactivation of the enzyme by heating to 65°C for 15 min, the obtained cDNA was diluted to a final volume of 150 µl with double-distilled water, and 4 µl used per PCR reaction. qRT-PCR, including normalization of raw data to cytosolic β-actin, was carried out as described previously. The resulting expression is given in arbitrary units.

male Wistar rats [2] = assay: Subtotal nephrectomy (remnant kidney) model; assay type: in vivo, rat; conditions: same dose for 3 days, data not shown
[3] = tested on: male Wistar rats treated with gentamicin; assay: Gentamicin-induced kidney failure (renal anemia) model; assay type: in vivo, rat
Description: Male Wistar rats were treated once daily with gentamicin (Gibco/Invitrogen) at a dose of 100 mg/kg body weight via i.p. injection on 14 consecutive days, [35]. Control animals received injections of an equal volume of 0.9% saline. After gentamicin treatment, PCV was determined and animals were distributed to the vehicle or treatment groups with respect to equal mean PCV. On day 15, BAY 85-3934 was given orally once daily at doses of 1 mg/kg, 2.5 mg/kg, 5.0 mg/kg, and 10.0 mg/kg, five times weekly.
as §2, §3
The effect of BAY 85-3934 on the induction of endogenous EPO production was evaluated in an animal model of impaired kidney function, the gentamicin-induced kidney failure model. A mean creatinine clearance of 30% of that of untreated animals and high expression levels of several markers of acute and chronic kidney injury were indicative of substantial renal impairment in these animals. […] The mean absolute levels of induction were lower in the gentamicin-treated animals than in the controls.

[4] = tested on: broad panel of radio-ligand binding assays; assay: Broad panel of radio-ligand binding assays (n = 67); conditions: 10 µM, n = 67 assays, data not shown
Description: The selectivity of BAY 85-3934 was examined via a broad panel of radio-ligand binding assays (n = 67), and by examining the activity of BAY 85-3934 against related enzymes (matrix metalloproteinases and other peptidases, n = 8). At a concentration of 10 µM, no significant (> 50%) activity in any of these assays was detected (data not shown).

male Wistar rats [5] = assay: 26-day repeat-dose experiment, packed cell volume
Description: as §1

[6] = BAY 85-3934 plasma levels after oral administration; assay type: in vivo, rat
Description: as §1, §2

**Q.** Which “time of maximum EPO plasma concentration” value (male Wistar rats [1]; 5 mg/kg oral, single dose) does the source give for O=c1c(-n2ccnn2)c[nH]n1-c1cc(N2CCOCC2)ncn1 [BAY 85-3934, 2-[6-(morpholin-4-yl)pyrimidin-4-yl]-4-(1H-1,2,3-triazol-1-yl)-1,2-dihydro-3H-pyrazol-3-one] here?
**A.** The value was 6 h.

**Q.** And the “time of peak kidney EPO mRNA expression” value (male Wistar rats [1]; 5 mg/kg oral, single dose)?
**A.** The value was 2 h.

**Q.** And the “kidney mRNA induction of the other genes examined (moderate or absent)” value (male Wistar rats [1]; 5 mg/kg single dose)?
**A.** The value was “less than 2 fold”.

**Q.** What about the “time of peak mRNA levels of HMOX-1, IGFBP-1, adrenomedullin, ANGPTL-4” value (male Wistar rats [1]; 5 mg/kg single dose, kidney) of the same compound?
**A.** The value was 2 h.

**Q.** What about the “kidney ANGPTL-4 mRNA induction factor” value (male Wistar rats [1]; 5 mg/kg single dose, p<0.01) of the same compound?
**A.** The value was 3.8 fold.

**Q.** And the “kidney HMOX-1 mRNA induction factor” value (male Wistar rats [1]; 5 mg/kg single dose, p<0.01)?
**A.** The value was 3.2 fold.

**Q.** What about the “kidney adrenomedullin mRNA induction factor” value (male Wistar rats [1]; 5 mg/kg single dose, p<0.01) of the same compound?
**A.** The value was 2.3 fold.

**Q.** And the “kidney insulin-like growth factor binding protein-1 mRNA induction factor” value (male Wistar rats [1]; 5 mg/kg single dose, p<0.01)?
**A.** Its value is 2.2 fold.

**Q.** What about the “kidney EPO mRNA induction over baseline” value (male Wistar rats [1]; 5 mg/kg single dose, peak at 2 h) of the same compound?
**A.** Its value is “about 50 fold”.

**Q.** What about the “blood pressure in normotensive rats” value (male Wistar rats [2]) of the same compound?
**A.** Its value is “did not affect blood pressure”.

**Q.** And the “time after onset of treatment for mean PCV to return to baseline” value ([3]; 2.5 mg/kg)?
**A.** The value was ≤ 2 weeks.

**Q.** And the “mean PCV” value ([3]; 5 mg/kg and 10 mg/kg, 5 days per week, final values higher than control, p<0.001)?
**A.** Its value is “prevented the decline in mean PCV”.

**Q.** What about the “kidney EPO mRNA expression” value ([3]; 4 h after oral administration) of the same compound?
**A.** The value was “increased dose-dependently”.

**Q.** And the “plasma EPO levels” value ([3]; 4 h after oral administration)?
**A.** The value was “significantly and dose-dependently induced”.

**Q.** What about the hemoglobin values ([3]; 7 days after the start of treatment) of the same compound?
**A.** Its hemoglobin values is “significant dose-dependent increase”.

**Q.** And the reticulocyte counts ([3]; all doses, data not shown)?
**A.** Its reticulocyte counts is “increase in reticulocyte counts”.

**Q.** What about the “doses giving significant induction of liver EPO mRNA” value ([3]; control group (no gentamicin)) of the same compound?
**A.** Its value is ≥ 2.5 mg/kg.

**Q.** What about the “doses giving significant induction of liver EPO mRNA” value ([3]; gentamicin-treated animals) of the same compound?
**A.** The value was ≥ 5 mg/kg.

**Q.** And the “expression of other HIF target genes in kidney and liver” value ([3]; oral administration)?
**A.** The value was “no dose-response”.

**Q.** What about the “activity in radio-ligand binding assays” value [4] of the same compound?
**A.** The value was ≤ 50%.

**Q.** What about the “gain in mean PCV” value (male Wistar rats [5]; 1.25 mg/kg once daily, by day 26) of the same compound?
**A.** The value was “approximately 3%”.

**Q.** What about the “mean PCV gain from baseline” value (male Wistar rats [5]; 5 mg/kg once daily, 26 days) of the same compound?
**A.** Its value is 17%.

**Q.** And the tolerability (male Wistar rats [5]; 0.5–5 mg/kg, 26 days)?
**A.** The tolerability was “well tolerated”.

**Q.** And the “dose from which mean PCV is significantly elevated versus vehicle” value (male Wistar rats [5]; once daily oral, 26 days)?
**A.** The value was ≥ 1.25 mg/kg.

**Q.** What about the “fraction of BAY 85-3934 eliminated from the plasma” value ([6]; 6 h after 5 mg/kg oral) of the same compound?
**A.** Its value is ~90%.

**Q.** And the half-life ([6]; rat, plasma, oral, 5 mg/kg, male Wistar rats)?
**A.** The half-life was 3.4 h.

**Q.** What about the bioavailability ([6]; rat, plasma, po, 5 mg/kg, male Wistar rats) of the same compound?
**A.** Its bioavailability is ~38%.
